# Like-named read-outs stand apart in the source and are kept apart here.
# Columns and labels:
# [1] = test system: RPE-Neo or RPE-MYC or RPE-MYC expressing an EGFP-Histone 2B fusion protein; experiment: Phenotypic screening assay (arrest in mitosis or change in DNA content, IN-Cell Analyzer); assay type: cell-based; conditions: compounds at 20 nM to 20 μM, analysed 24, 48 or 72 hours after initiation of treatment
# Method: (§1) Screening was conducted as described before (Li et al. 2019). Briefly, RPE-Neo or RPE-MYC or RPE-MYC expressing an EGFP-Histone 2B fusion protein were passaged as batches of 96-well plates, 18-24 hours before exposure to the chemical compounds of the present disclosure at concentrations from 20 nM to 20 μM. At 24, 48 or 72 hours after initiation of treatment, cells were analyzed for either an arrest in mitosis or a change in DNA content by GE 1N-Cell Analyzer 2000. MTT assays of cellular proliferation were performed as previously described (Li et al. 2019).
# (§2) As set forth in table 2 below, an values of greater than or equal to 1 nM and less than or equal to 1.0 μM is marked “A”; a value greater than 1.00 μM and less than or equal to 10.0 μM is marked “B”; a value greater than 10.0 μM and less than or equal to 30.0 μM is marked “C”; and a value greater than 30.0 μM and less than 1000 μM is marked “D.”
# RPE-Neo or RPE-MYC cells = experiment: MTT assay of cellular proliferation; assay type: cell-based; conditions: compounds at 20 nM to 20 μM; read-out: Min. Effective conc. for Proliferative arrest (>50%)
# Method: Human cancer cell lines were obtained from ATCC and cultured in DMEM (Gibco, Cleveland. TN, USA) supplemented with 5% fetal bovine serum (Gibco), penicillin (100 U/mL)-streptomycin (100 μg/mL) (Gibco, Cat. No. 15140-122), 2 mM L-glutamine (Gibco, 200 mM solution, Cat. No. 25030081), and 1 mM sodium pyruvate (Gibco, 100 mM solution, Cat. No. 11360070) at 37° C. in a humidified incubator that was maintained at 5% CO2.
# as §1, §2
# [2] = read-out: Min. Effective conc. for Along with Cell Death
# [3] = read-out: Min. Effective conc. for Mitotic Arrest (>5%)
# [4] = read-out: Min. Effective conc. for Polyploidy (≥5%)
smiles,measurement,setting,value
"Cc1ccc(CN2C(=O)CC(c3cnco3)=C(Cl)c3ccccc32)cc1F [Compound 8-1, 5-chloro-1-(3-fluoro-4-methylbenzyl)-4-(oxazol-5-yl)-1,3-dihydro-2H-benzo[b]azepin-2-one]",minimal effective concentration,[1]; [2],0.001 to 1 µM
same,minimal effective concentration,[1]; [3],0.001 to 1 µM
same,minimal effective concentration,[1]; [4],0.001 to 1 µM
same,minimal effective concentration,RPE-Neo or RPE-MYC cells,0.001 to 1 µM
"COCC1=C(OC)c2ccccc2N(Cc2ccc(C)c(F)c2)C(=O)C1 [Compound 28-1, 1-(3-fluoro-4-methylbenzyl)-5-methoxy-4-(methoxymethyl)-1,3-dihydro-2H-benzo[b]azepin-2-one]",minimal effective concentration,[1]; [2],1 to 10 µM
same,minimal effective concentration,[1]; [3],1 to 10 µM
same,minimal effective concentration,[1]; [4],1 to 10 µM
same,minimal effective concentration,RPE-Neo or RPE-MYC cells,1 to 10 µM
"Cc1ccc(CN2C(=O)CC(c3nnc(C4CC4)o3)=C(Br)c3ccc(F)cc32)cc1F [Compound 20-7, 5-bromo-4-(5-cyclopropyl-1,3,4-oxadiazol-2-yl)-8-fluoro-1-(3-fluoro-4-methylbenzyl)-1,3-dihydro-2H-benzo[b]azepin-2-one]",minimal effective concentration,[1]; [2],0.001 to 1 µM
same,minimal effective concentration,[1]; [3],0.001 to 1 µM
same,minimal effective concentration,[1]; [4],0.001 to 1 µM
same,minimal effective concentration,RPE-Neo or RPE-MYC cells,0.001 to 1 µM
"Cc1nnc(C2=C(Br)c3ccc(Cl)cc3N(Cc3ccc(C)c(F)c3)C(=O)C2)o1 [Compound 20-10, 5-bromo-8-chloro-1-(3-fluoro-4-methylbenzyl)-4-(5-methyl-1,3,4-oxadiazol-2-yl)-1,3-dihydro-2H-benzo[b]azepin-2-one]",minimal effective concentration,[1]; [2],0.001 to 1 µM
same,minimal effective concentration,[1]; [3],0.001 to 1 µM
same,minimal effective concentration,[1]; [4],0.001 to 1 µM
same,minimal effective concentration,RPE-Neo or RPE-MYC cells,0.001 to 1 µM
"Cc1ccc(CN2C(=O)CC(c3nnc(C4CC4)o3)=C(Br)c3cc(F)ccc32)cc1F [Compound 20-17, 5-bromo-4-(5-cyclopropyl-1,3,4-oxadiazol-2-yl)-7-fluoro-1-(3-fluoro-4-methylbenzyl)-1,3-dihydro-2H-benzo[b]azepin-2-one]",minimal effective concentration,[1]; [2],0.001 to 1 µM
same,minimal effective concentration,[1]; [3],0.001 to 1 µM
same,minimal effective concentration,[1]; [4],0.001 to 1 µM
same,minimal effective concentration,RPE-Neo or RPE-MYC cells,0.001 to 1 µM
"COc1ccc2c(c1)N(Cc1ccc(C)c(F)c1)C(=O)CC(c1nnc(C3CC3)o1)=C2Br [Compound 20-4, 5-bromo-4-(5-cyclopropyl-1,3,4-oxadiazol-2-yl)-1-(3-fluoro-4-methylbenzyl)-8-methoxy-1,3-dihydro-2H-benzo[b]azepin-2-one]",minimal effective concentration,[1]; [2],0.001 to 1 µM
same,minimal effective concentration,[1]; [3],0.001 to 1 µM
same,minimal effective concentration,[1]; [4],0.001 to 1 µM
same,minimal effective concentration,RPE-Neo or RPE-MYC cells,0.001 to 1 µM
"Cc1ccc(CN2C(=O)CC(c3ccon3)=C(Cl)c3ccccc32)cc1F [Compound 13-1, 5-chloro-1-(3-fluoro-4-methylbenzyl)-4-(isoxazol-3-yl)-1,3-dihydro-2H-benzo[b]azepin-2-one]",minimal effective concentration,[1]; [2],0.001 to 1 µM
same,minimal effective concentration,[1]; [3],0.001 to 1 µM
same,minimal effective concentration,[1]; [4],0.001 to 1 µM
same,minimal effective concentration,RPE-Neo or RPE-MYC cells,0.001 to 1 µM
"Cc1ccc(CN2C(=O)CC(c3nnc(C4CC4)o3)=C(Br)c3ccc(C(F)(F)F)cc32)cc1F [Compound 20-14, 5-bromo-4-(5-cyclopropyl-1,3,4-oxadiazol-2-yl)-1-(3-fluoro-4-methylbenzyl)-8-(trifluoromethyl)-1,3-dihydro-2H-benzo[b]azepin-2-one]",minimal effective concentration,[1]; [2],0.001 to 1 µM
same,minimal effective concentration,[1]; [3],0.001 to 1 µM
same,minimal effective concentration,[1]; [4],0.001 to 1 µM
same,minimal effective concentration,RPE-Neo or RPE-MYC cells,0.001 to 1 µM
"Cc1ccc(CN2C(=O)CC(c3nnc(C4CC4)o3)=C(Cl)c3ccccc32)cc1F [Compound 20-5, 5-chloro-4-(5-cyclopropyl-1,3,4-oxadiazol-2-yl)-1-(3-fluoro-4-methylbenzyl)-1,3-dihydro-2H-benzo[b]azepin-2-one]",minimal effective concentration,[1]; [2],0.001 to 1 µM
same,minimal effective concentration,[1]; [3],0.001 to 1 µM
same,minimal effective concentration,[1]; [4],0.001 to 1 µM
same,minimal effective concentration,RPE-Neo or RPE-MYC cells,0.001 to 1 µM
CC1=C(c2nnc(C3CC3)o2)CC(=O)N(Cc2ccc(C)c(F)c2)c2ccccc21 [Compound 20-30],minimal effective concentration,[1]; [2],0.001 to 1 µM
same,minimal effective concentration,[1]; [3],0.001 to 1 µM
same,minimal effective concentration,[1]; [4],0.001 to 1 µM
same,minimal effective concentration,RPE-Neo or RPE-MYC cells,0.001 to 1 µM
"Cc1ccc(CN2C(=O)CC(c3cnco3)=C(Cl)c3ccc(O)cc32)cc1F [Compound 8-7, 5-chloro-1-(3-fluoro-4-methylbenzyl)-8-hydroxy-4-(oxazol-5-yl)-1,3-dihydro-2H-benzo[b]azepin-2-one]",minimal effective concentration,[1]; [2],0.001 to 1 µM
same,minimal effective concentration,[1]; [3],0.001 to 1 µM
same,minimal effective concentration,[1]; [4],0.001 to 1 µM
same,minimal effective concentration,RPE-Neo or RPE-MYC cells,0.001 to 1 µM
Cc1ccc(C(C)N2C(=O)CC(c3nnc(C4CC4)o3)=C(Br)c3ccccc32)cc1F (stereo not drawn) [Compound 40],minimal effective concentration,[1]; [2],1 to 10 µM
same,minimal effective concentration,[1]; [3],1 to 10 µM
same,minimal effective concentration,[1]; [4],1 to 10 µM
same,minimal effective concentration,RPE-Neo or RPE-MYC cells,1 to 10 µM
"COc1ccc(C(=O)N2CCC(c3nnc(C4CC4)o3)=C(Br)c3ccccc32)cc1F [Compound 34-2, (5-bromo-4-(5-cyclopropyl-1,3,4-oxadiazol-2-yl)-2,3-dihydro-1H-benzo[b]azepin-1-yl)(3-fluoro-4-methoxyphenyl)methanone]",minimal effective concentration,[1]; [2],0.001 to 1 µM
same,minimal effective concentration,[1]; [3],0.001 to 1 µM
same,minimal effective concentration,[1]; [4],0.001 to 1 µM
same,minimal effective concentration,RPE-Neo or RPE-MYC cells,0.001 to 1 µM
"C#Cc1ccc2c(c1)N(Cc1ccc(C)c(F)c1)C(=O)CC(c1nnc(C3CC3)o1)=C2Br [Compound 20-20, 5-bromo-4-(5-cyclopropyl-1,3,4-oxadiazol-2-yl)-8-ethynyl-1-(3-fluoro-4-methylbenzyl)-1,3-dihydro-2H-benzo[b]azepin-2-one]",minimal effective concentration,[1]; [2],0.001 to 1 µM
same,minimal effective concentration,[1]; [3],0.001 to 1 µM
same,minimal effective concentration,[1]; [4],0.001 to 1 µM
same,minimal effective concentration,RPE-Neo or RPE-MYC cells,0.001 to 1 µM
"Cc1nnc(C2=C(Br)c3ccc(F)cc3N(Cc3ccc(C)c(F)c3)C(=O)C2)o1 [Compound 20-8, 5-bromo-8-fluoro-1-(3-fluoro-4-methylbenzyl)-4-(5-methyl-1,3,4-oxadiazol-2-yl)-1,3-dihydro-2H-benzo[b]azepin-2-one]",minimal effective concentration,[1]; [2],0.001 to 1 µM
same,minimal effective concentration,[1]; [3],0.001 to 1 µM
same,minimal effective concentration,[1]; [4],0.001 to 1 µM
same,minimal effective concentration,RPE-Neo or RPE-MYC cells,0.001 to 1 µM
"Cc1ccc(CN2C(=O)CC(c3nc[nH]n3)=C(Br)c3ccccc32)cc1F [Compound 22-1, 5-bromo-1-(3-fluoro-4-methylbenzyl)-4-(1H-1,2,4-triazol-3-yl)-1,3-dihydro-2H-benzo[b]azepin-2-one]",minimal effective concentration,[1]; [2],1 to 10 µM
same,minimal effective concentration,[1]; [3],1 to 10 µM
same,minimal effective concentration,[1]; [4],1 to 10 µM
same,minimal effective concentration,RPE-Neo or RPE-MYC cells,1 to 10 µM
"Cc1ccc(CN2C(=O)CC(c3cnco3)=C(Cl)c3ccc(C#N)cc32)cc1F [Compound 8-4, 5-chloro-1-(3-fluoro-4-methylbenzyl)-4-(oxazol-5-yl)-2-oxo-2,3-dihydro-1H-benzo[b]azepine-8-carbonitrile]",minimal effective concentration,[1]; [2],0.001 to 1 µM
same,minimal effective concentration,[1]; [3],0.001 to 1 µM
same,minimal effective concentration,[1]; [4],0.001 to 1 µM
same,minimal effective concentration,RPE-Neo or RPE-MYC cells,0.001 to 1 µM
"Cc1ccc2c(c1)N(Cc1ccc(C)c(F)c1)C(=O)CC(c1cnco1)=C2Br [Compound 8-13, 5-bromo-1-(3-fluoro-4-methylbenzyl)-8-methyl-4-(oxazol-5-yl)-1,3-dihydro-2H-benzo[b]azepin-2-one]",minimal effective concentration,[1]; [2],0.001 to 1 µM
same,minimal effective concentration,[1]; [3],0.001 to 1 µM
same,minimal effective concentration,[1]; [4],0.001 to 1 µM
same,minimal effective concentration,RPE-Neo or RPE-MYC cells,0.001 to 1 µM
